Measurements from US10597388B2, “Pyridazinone herbicides” (FMC CORPORATION, priority 2014, dated 2020).

What was measured:
Test in all cases: Test D controlled growth environment herbicide test, pre- and postemergence
Assay type in all cases: in vivo
[1] = system: mustard, wild (wild mustard, Sinapis arvensis)
Procedure, shortened: (§1)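 Species sown in silt loam and sprayed preemergence, or grown in peat-based medium to 2–18 cm (1- to 4-leaf stage) and sprayed postemergence, with compounds in non-phytotoxic solvent plus surfactant. Visual injury scored versus controls after 14–21 d in a controlled environment, 0 (no effect) to 100 (complete control).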

[2] = system: oilseed rape (Brassica napus)
Procedure, shortened: as §1

[3] = system: chamomile (scentless chamomile, Matricaria inodora)
Procedure, shortened: as §1

[4] = system: lambsquarters (Chenopodium album)
Procedure, shortened: as §1

[5] = system: barley, spring (spring barley, Hordeum vulgare)
Procedure, shortened: as §1

[6] = system: ryegrass, Italian (Italian ryegrass, Lolium multiflorum)
Procedure, shortened: as §1

[7] = system: wheat, winter (winter wheat, Triticum aestivum)
Procedure, shortened: as §1

[8] = system: blackgrass (Alopecurus myosuroides)
Procedure, shortened: as §1

[9] = system: speedwell (bird's-eye speedwell, Veronica persica)
Procedure, shortened: as §1

[10] = system: foxtail, green (green foxtail, Setaria viridis)
Procedure, shortened: as §1

[11] = system: bluegrass (annual bluegrass, Poa annua)
Procedure, shortened: as §1

[12] = system: field poppy (Papaver rhoeas)
Procedure, shortened: as §1

[13] = system: wheat, spring (spring wheat, Triticum aestivum)
Procedure, shortened: as §1

[14] = Postemergence, 31 g ai/ha, scale 0 to 100 (0 no effect, 100 complete control)
[15] = Postemergence, 125 g ai/ha, visual rating on scale 0 (no effect) to 100 (complete control), 14 to 21 d
[16] = Postemergence, 250 g ai/ha, scale 0 to 100 (0 no effect, 100 complete control)
[17] = Preemergence, 62 g ai/ha, scale 0 to 100 (0 no effect, 100 complete control)
[18] = Preemergence, 125 g ai/ha, scale 0 to 100 (0 no effect, 100 complete control)
[19] = Preemergence, 250 g ai/ha, scale 0 to 100 (0 no effect, 100 complete control)
[20] = postemergence, 62 g ai/ha, scale 0 to 100, 0 no effect, 100 complete control

CC(=O)Oc1c(C)nn(C)c(=O)c1-c1c(C)sc2c(C)cc(C)cc12 [Compound 27] was tested, and the “Mustard, Wild plant response rating” value [1, 14] was 15, the “Plant response rating, Mustard, Wild” value [1, 15] was 30 and the “Plant response rating, Mustard, Wild” value [1, 16] was 75. For the same compound, the “Plant response rating (scale of 0 to 100), Mustard, Wild” value ([1]; Preemergence, 31 g ai/ha) was 40, the “Plant response rating, Mustard, Wild” value [1, 17] was 40 and the “Plant response rating, Mustard, Wild” value [1, 18] was 45. The “Plant response rating, Mustard, Wild” value [1, 19] was 65, the “Plant response rating, Mustard, Wild” value [1, 20] was 40 and the “Oilseed Rape plant response rating” value [2, 14] was 55. The “Plant response rating, Oilseed Rape” value [2, 15] was 70, the “Plant response rating, Oilseed Rape” value [2, 16] was 85 and the “Plant response rating (scale of 0 to 100), Oilseed Rape” value ([2]; Preemergence, 31 g ai/ha) was 0. For the same compound, the “Plant response rating, Oilseed Rape” value [2, 17] was 0, the “Plant response rating, Oilseed Rape” value [2, 18] was 0 and the “Plant response rating, Oilseed Rape” value [2, 19] was 35. The “Plant response rating, Oilseed Rape” value [2, 20] was 65, the “Chamomile plant response rating” value [3, 14] was 80 and the “Plant response rating, Chamomile” value [3, 15] was 95. For the same compound, the “Plant response rating, Chamomile” value [3, 16] was 100, the “Plant response rating (scale of 0 to 100), Chamomile” value ([3]; Preemergence, 31 g ai/ha) was 100 and the “Plant response rating, Chamomile” value [3, 17] was 100. For the same compound, the “Plant response rating, Chamomile” value [3, 18] was 100, the “Plant response rating, Chamomile” value [3, 19] was 100 and the “Plant response rating, Chamomile” value [3, 20] was 90. The “Lambsquarters plant response rating” value [4, 14] was 80, the “Plant response rating, Lambsquarters” value [4, 15] was 85 and the “Plant response rating, Lambsquarters” value [4, 16] was 85. For the same compound, the “Plant response rating (scale of 0 to 100), Lambsquarters” value ([4]; Preemergence, 31 g ai/ha) was 100, the “Plant response rating, Lambsquarters” value [4, 17] was 100 and the “Plant response rating, Lambsquarters” value [4, 18] was 100. The “Plant response rating, Lambsquarters” value [4, 19] was 100, the “Plant response rating, Lambsquarters” value [4, 20] was 85 and the “Plant response rating, Barley, Spring” value [5, 14] was 0. For the same compound, the “Plant response rating, Barley, Spring” value [5, 15] was 5, the “Plant response rating, Barley, Spring” value [5, 16] was 10 and the “Plant response rating (scale of 0 to 100), Barley, Spring” value ([5]; Preemergence, 31 g ai/ha) was 0. The “Plant response rating, Barley, Spring” value [5, 17] was 0, the “Plant response rating, Barley, Spring” value [5, 18] was 0 and the “Barley, Spring plant response rating” value [5, 19] was 0. For the same compound, the “Plant response rating, Barley, Spring” value [5, 20] was 0, the “Ryegrass, Italian plant response rating” value [6, 14] was 80 and the “Plant response rating, Ryegrass, Italian” value [6, 15] was 85. For the same compound, the “Plant response rating, Ryegrass, Italian” value [6, 16] was 85, the “Plant response rating (scale of 0 to 100), Ryegrass, Italian” value ([6]; Preemergence, 31 g ai/ha) was 90 and the “Plant response rating, Ryegrass, Italian” value [6, 17] was 100. For the same compound, the “Plant response rating, Ryegrass, Italian” value [6, 18] was 100, the “Plant response rating, Ryegrass, Italian” value [6, 19] was 100 and the “Plant response rating, Ryegrass, Italian” value [6, 20] was 85. The “Wheat, Winter plant response rating” value [7, 14] was 0, the “Plant response rating, Wheat, Winter” value [7, 15] was 5 and the “Plant response rating, Wheat, Winter” value [7, 16] was 10. The “Plant response rating (scale of 0 to 100), Wheat, Winter” value ([7]; Preemergence, 31 g ai/ha) was 0, the “Plant response rating, Wheat, Winter” value [7, 17] was 0 and the “Plant response rating, Wheat, Winter” value [7, 18] was 0. For the same compound, the “Plant response rating, Wheat, Winter” value [7, 19] was 5, the “Plant response rating, Wheat, Winter” value [7, 20] was 5 and the “Blackgrass plant response rating” value [8, 14] was 75. The “Plant response rating, Blackgrass” value [8, 15] was 90, the “Plant response rating, Blackgrass” value [8, 16] was 90 and the “Plant response rating (scale of 0 to 100), Blackgrass” value ([8]; Preemergence, 31 g ai/ha) was 85. For the same compound, the “Plant response rating, Blackgrass” value [8, 17] was 90, the “Plant response rating, Blackgrass” value [8, 18] was 95 and the “Blackgrass plant response rating” value [8, 19] was 100. For the same compound, the “Plant response rating, Blackgrass” value [8, 20] was 80, the “Speedwell plant response rating” value [9, 14] was 35 and the “Plant response rating, Speedwell” value [9, 15] was 100. The “Plant response rating, Speedwell” value [9, 16] was 100, the “Plant response rating (scale of 0 to 100), Speedwell” value ([9]; Preemergence, 31 g ai/ha) was 75 and the “Plant response rating, Speedwell” value [9, 17] was 100. For the same compound, the “Plant response rating, Speedwell” value [9, 18] was 100, the “Plant response rating, Speedwell” value [9, 19] was 100 and the “Plant response rating, Speedwell” value [9, 20] was 70. For the same compound, the “Foxtail, Green plant response rating” value [10, 14] was 70, the “Plant response rating, Foxtail, Green” value [10, 15] was 80 and the “Plant response rating, Foxtail, Green” value [10, 16] was 80. For the same compound, the “Plant response rating (scale of 0 to 100), Foxtail, Green” value ([10]; Preemergence, 31 g ai/ha) was 95, the “Plant response rating, Foxtail, Green” value [10, 17] was 95 and the “Plant response rating, Foxtail, Green” value [10, 18] was 100. The “Plant response rating, Foxtail, Green” value [10, 19] was 100, the “Plant response rating, Foxtail, Green” value [10, 20] was 80 and the “Bluegrass plant response rating” value [11, 14] was 15. For the same compound, the “Plant response rating, Bluegrass” value [11, 15] was 30, the “Plant response rating, Bluegrass” value [11, 16] was 40 and the “Plant response rating (scale of 0 to 100), Bluegrass” value ([11]; Preemergence, 31 g ai/ha) was 25. The “Plant response rating, Bluegrass” value [11, 17] was 35, the “Plant response rating, Bluegrass” value [11, 18] was 70 and the “Bluegrass plant response rating” value [11, 19] was 80. The “Plant response rating, Bluegrass” value [11, 20] was 25, the “Field Poppy plant response rating” value [12, 14] was 85 and the “Plant response rating, Field Poppy” value [12, 15] was 100. For the same compound, the “Plant response rating, Field Poppy” value [12, 16] was 100, the “Plant response rating (scale of 0 to 100), Field Poppy” value ([12]; Preemergence, 31 g ai/ha) was 100 and the “Plant response rating, Field Poppy” value [12, 17] was 100. For the same compound, the “Plant response rating, Field Poppy” value [12, 18] was 100, the “Plant response rating, Field Poppy” value [12, 19] was 100 and the “Plant response rating, Field Poppy” value [12, 20] was 100. For the same compound, the “Wheat, Spring plant response rating” value [13, 14] was 0, the “Plant response rating, Wheat, Spring” value [13, 15] was 10 and the “Plant response rating, Wheat, Spring” value [13, 16] was 20. The “Plant response rating (scale of 0 to 100), Wheat, Spring” value ([13]; Preemergence, 31 g ai/ha) was 0, the “Plant response rating, Wheat, Spring” value [13, 17] was 0 and the “Plant response rating, Wheat, Spring” value [13, 18] was 5. The “Plant response rating, Wheat, Spring” value [13, 19] was 25 and the “Plant response rating, Wheat, Spring” value [13, 20] was 5.
